Assay results reported in PubChem BioAssay AID1963858 (Molecular Pharmacology Branch, DTP, NCI, 2024).

System: HOP-62 multicell spheroids with HUVEC/MSC, viability
Test: Anticancer human tumor HOP-62 cell line growth inhibition [KRAS2];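 also: viability read after a week of compound exposure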;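 as to viability, T/C: 100% = DMSO vehicle-treated spheroids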
Conditions: for IC50: curve of first compound; for viability, T/C: stronger effect = lower value
Procedure, shortened: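 Combination screen of spheroid viability in tumor-cell co-cultures with endothelial (HUVEC) and mesenchymal stem cell stroma. Each agent was tested in half-log dilutions, topping at clinical Cmax or at 10 microM without a known Cmax.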

[1] = second compound 0.1 µM, first compound 0.0316 µM
[2] = second compound 0.1 µM, first compound 0.1 µM
[3] = second compound 0.1 µM, first compound 0.316 µM
[4] = second compound 0.1 µM, first compound 1 µM
[5] = second compound 0.1 µM, first compound 3.16 µM
[6] = second compound 0.1 µM, first compound 10 µM
[7] = second compound 0.316 µM, first compound 0.0316 µM
[8] = second compound 0.316 µM, first compound 0.1 µM
[9] = second compound 0.316 µM, first compound 0.316 µM
[10] = second compound 0.316 µM, first compound 1 µM
[11] = second compound 0.316 µM, first compound 3.16 µM
[12] = second compound 0.316 µM, first compound 10 µM
[13] = second compound 1 µM, first compound 0.0316 µM
[14] = second compound 1 µM, first compound 0.1 µM
[15] = second compound 1 µM, first compound 0.316 µM
[16] = second compound 1 µM, first compound 1 µM
[17] = second compound 1 µM, first compound 3.16 µM
[18] = second compound 1 µM, first compound 10 µM
[19] = second compound 3.16 µM, first compound 0.0316 µM
[20] = second compound 3.16 µM, first compound 0.1 µM
[21] = second compound 3.16 µM, first compound 0.316 µM
[22] = second compound 3.16 µM, first compound 1 µM
[23] = second compound 3.16 µM, first compound 3.16 µM
[24] = second compound 3.16 µM, first compound 10 µM
[25] = second compound 10 µM, first compound 0.0316 µM
[26] = second compound 10 µM, first compound 0.1 µM
[27] = second compound 10 µM, first compound 0.316 µM
[28] = second compound 10 µM, first compound 1 µM
[29] = second compound 10 µM, first compound 3.16 µM
[30] = second compound 10 µM, first compound 10 µM
[31] = second compound 0.0316 µM, first compound 0.01 µM
[32] = second compound 0.0316 µM, first compound 0.0316 µM
[33] = second compound 0.0316 µM, first compound 0.1 µM
[34] = second compound 0.1 µM, first compound 0.01 µM
[35] = second compound 0.316 µM, first compound 0.01 µM
[36] = second compound 1 µM, first compound 0.01 µM
[37] = second compound 3.16 µM, first compound 0.01 µM

SMILES: CC1OCC2(CCN(c3cnc(Sc4ccnc(N)c4Cl)c(N)n3)CC2)C1N (stereo not given) + C=CC(=O)N1CCN(c2nc(=O)n(-c3c(C)ccnc3C(C)C)c3nc(-c4c(O)cccc4F)c(F)cc23)C(C)C1
- IC50 (second compound 0.1 µM): < 31.6 nM
- IC50 (second compound 0.316 µM): 62.3 nM
- IC50 (second compound 1 µM): 90.5 nM
- IC50 (second compound 3.16 µM): 134 nM
- IC50 (second compound 10 µM): < 31.6 nM
- viability, T/C [1]: 47.7%
- viability, T/C [2]: 39.1%
- viability, T/C [3]: 26.5%
- viability, T/C [4]: 16.3%
- viability, T/C [5]: 12.5%
- viability, T/C [6]: 13.3%
- viability, T/C [7]: 63.7%
- viability, T/C [8]: 39.8%
- viability, T/C [9]: 28.4%
- viability, T/C [10]: 19.2%
- viability, T/C [11]: 15.6%
- viability, T/C [12]: 13.6%
- viability, T/C [13]: 67.5%
- viability, T/C [14]: 47%
- viability, T/C [15]: 36.9%
- viability, T/C [16]: 27.4%
- viability, T/C [17]: 18.2%
- viability, T/C [18]: 21.5%
- viability, T/C [19]: 61%
- viability, T/C [20]: 51.7%
- viability, T/C [21]: 42.5%
- viability, T/C [22]: 30.1%
- viability, T/C [23]: 24.1%
- viability, T/C [24]: 24.9%
- viability, T/C [25]: 44.6%
- viability, T/C [26]: 40.7%
- viability, T/C [27]: 30.1%
- viability, T/C [28]: 26.2%
- viability, T/C [29]: 25.8%
- viability, T/C [30]: 23.2%

SMILES: Cn1nccc1Nc1nccc(-c2cc3c(s2)C(C)(C)N(CCN2CCOCC2)C3=O)n1 + C=CC(=O)N1CCN(c2nc(=O)n(-c3c(C)ccnc3C(C)C)c3nc(-c4c(O)cccc4F)c(F)cc23)C(C)C1
- IC50 (second compound 0.1 µM): 153 nM
- IC50 (second compound 0.316 µM): 253 nM
- IC50 (second compound 1 µM): 153 nM
- IC50 (second compound 3.16 µM): 361 nM
- IC50 (second compound 10 µM): < 31.6 nM
- viability, T/C [1]: 63.7%
- viability, T/C [2]: 56.7%
- viability, T/C [3]: 38.6%
- viability, T/C [4]: 23.9%
- viability, T/C [5]: 16.5%
- viability, T/C [6]: 17.1%
- viability, T/C [7]: 64.5%
- viability, T/C [8]: 61.5%
- viability, T/C [9]: 47.3%
- viability, T/C [10]: 27.2%
- viability, T/C [11]: 20.4%
- viability, T/C [12]: 17%
- viability, T/C [13]: 63.7%
- viability, T/C [14]: 54.4%
- viability, T/C [15]: 41.3%
- viability, T/C [16]: 31.3%
- viability, T/C [17]: 18.4%
- viability, T/C [18]: 24.6%
- viability, T/C [19]: 50%
- viability, T/C [20]: 55%
- viability, T/C [21]: 52.1%
- viability, T/C [22]: 34%
- viability, T/C [23]: 25.2%
- viability, T/C [24]: 25%
- viability, T/C [25]: 46.1%
- viability, T/C [26]: 41.5%
- viability, T/C [27]: 33.8%
- viability, T/C [28]: 28.2%
- viability, T/C [29]: 27.6%
- viability, T/C [30]: 34.4%

SMILES: CC(=O)OC12COC1CC(O)C1(C)C(=O)C(O)C3=C(C)C(OC(=O)C(O)C(NC(=O)OC(C)(C)C)c4ccccc4)CC(O)(C(OC(=O)c4ccccc4)C21)C3(C)C (stereo not given) + C=CC(=O)N1CCN(c2nc(OCC3CCCN3C)nc3c2CCN(c2cccc4cccc(C)c24)C3)CC1CC#N
- IC50 (second compound 0.0316 µM): < 10 nM
- IC50 (second compound 0.1 µM): < 10 nM
- IC50 (second compound 0.316 µM): < 10 nM
- IC50 (second compound 1 µM): < 10 nM
- IC50 (second compound 3.16 µM): < 10 nM
- viability, T/C [31]: 31.2%
- viability, T/C [32]: 26.2%
- viability, T/C [33]: 26.6%
- viability, T/C (second compound 0.0316 µM, first compound 0.316 µM): 28.6%
- viability, T/C (second compound 0.0316 µM, first compound 1 µM): 30.2%
- viability, T/C (second compound 0.0316 µM, first compound 3.16 µM): 35.1%
- viability, T/C [34]: 19.4%
- viability, T/C [1]: 22.7%
- viability, T/C [2]: 20.7%
- viability, T/C [3]: 20.1%
- viability, T/C [4]: 23.2%
- viability, T/C [5]: 23.2%
- viability, T/C [35]: 18.7%
- viability, T/C [7]: 20.1%
- viability, T/C [8]: 17.5%
- viability, T/C [9]: 16.9%
- viability, T/C [10]: 20.2%
- viability, T/C [11]: 19.9%
- viability, T/C [36]: 18.7%
- viability, T/C [13]: 12.1%
- viability, T/C [14]: 17.1%
- viability, T/C [15]: 16.2%
- viability, T/C [16]: 18.2%
- viability, T/C [17]: 18.9%
- viability, T/C [37]: 27.7%
- viability, T/C [19]: 26.9%
- viability, T/C [20]: 23.2%
- viability, T/C [21]: 28.5%
- viability, T/C [22]: 25.5%
- viability, T/C [23]: 27.6%

SMILES: CN(C)C/C=C/C(=O)Nc1cc2c(Nc3ccc(F)c(Cl)c3)ncnc2cc1O[C@H]1CCOC1 + C=CC(=O)N1CCN(c2nc(OCC3CCCN3C)nc3c2CCN(c2cccc4cccc(C)c24)C3)CC1CC#N
- IC50 (second compound 0.0316 µM): > 100 nM
- IC50 (second compound 0.1 µM): > 100 nM
- IC50 (second compound 0.316 µM): 4.39 nM
- IC50 (second compound 1 µM): < 0.316 nM
- IC50 (second compound 3.16 µM): < 0.316 nM
- viability, T/C (second compound 0.0316 µM, first compound 0.000316 µM): 111%
- viability, T/C (second compound 0.0316 µM, first compound 0.001 µM): 105%
- viability, T/C (second compound 0.0316 µM, first compound 0.00316 µM): 94.9%
- viability, T/C [31]: 86%
- viability, T/C [32]: 99.3%
- viability, T/C [33]: 89.6%
- viability, T/C (second compound 0.1 µM, first compound 0.000316 µM): 69%
- viability, T/C (second compound 0.1 µM, first compound 0.001 µM): 75.4%
- viability, T/C (second compound 0.1 µM, first compound 0.00316 µM): 67.1%
- viability, T/C [34]: 61.5%
- viability, T/C [1]: 67.4%
- viability, T/C [2]: 61.2%
- viability, T/C (second compound 0.316 µM, first compound 0.000316 µM): 57.4%
- viability, T/C (second compound 0.316 µM, first compound 0.001 µM): 52.6%
- viability, T/C (second compound 0.316 µM, first compound 0.00316 µM): 49.4%
- viability, T/C [35]: 48.8%
- viability, T/C [7]: 46.8%
- viability, T/C [8]: 42.1%
- viability, T/C (second compound 1 µM, first compound 0.000316 µM): 42.8%
- viability, T/C (second compound 1 µM, first compound 0.001 µM): 44.9%
- viability, T/C (second compound 1 µM, first compound 0.00316 µM): 41%
- viability, T/C [36]: 37%
- viability, T/C [13]: 31.5%
- viability, T/C [14]: 32.2%
- viability, T/C (second compound 3.16 µM, first compound 0.000316 µM): 22.5%
- viability, T/C (second compound 3.16 µM, first compound 0.001 µM): 0.2%
- viability, T/C (second compound 3.16 µM, first compound 0.00316 µM): 3.5%
- viability, T/C [37]: 6.01%
- viability, T/C [19]: 17.6%
- viability, T/C [20]: 13.5%
